Assay results from the supplement of paper PMC5579334.

Tests used:
[1] = tested on: HS-PSS; experiment: drug sensitivity score (DSS, CellTox-Green cytotoxicity, 72 h) (DSS (dimensionless)); higher = more cytotoxic; extreme values may be limits of the assay
Summary of the method: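 MPNST cell lines and primary human Schwann cells were grown for 72 h at 37 °C in 384-well plates containing five 10-fold compound dilutions. CellTox-Green, added before seeding at a final 1:1000 dilution, gave fluorescence from DNA released by disrupted cells, and signals were scaled to vehicle and positive-control wells. Curves were fitted with a four-parameter logistic model. Drug sensitivity score and relative IC50 come from these fits, with IC50 censored at the top concentration.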

[2] = tested on: HS-Sch-2; experiment: % inhibition of CellTiter-Glo viability at highest tested concentration (72 h), relative to DMSO and benzethonium chloride controls; higher = more inhibition
Summary of the method: (§1)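 Viability of MPNST cell lines and primary human Schwann cells was read as CellTiter-Glo ATP luminescence after 72 h at 37 °C, 5% CO2, in 384-well plates seeded with 750–1000 cells per well. Each compound had been preprinted at five concentrations in 10-fold steps. Signals were scaled between vehicle and positive-control wells, duplicates averaged where present, and fitted with four-parameter logistic curves. Drug sensitivity score and relative IC50 (censored at the top concentration) come from those fits, and percent inhibition is taken at the top concentration.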

[3] = tested on: YST-1; experiment: as above
Summary of the method: as §1

[4] = tested on: HS-PSS; experiment: as above
Summary of the method: as §1

[5] = tested on: HS-Sch-2; experiment: drug sensitivity score (DSS, CellTiter-Glo viability, 72 h) (DSS (dimensionless)); higher = more sensitive; extreme values may be limits of the assay
Summary of the method: as §1

[6] = tested on: YST-1; experiment: as above
Summary of the method: as §1

[7] = tested on: HS-PSS; experiment: as above
Summary of the method: as §1

Compound | drug sensitivity score [1] | % inhibition [2] [%] | % inhibition [3] [%] | % inhibition [4] [%] | drug sensitivity score [5] | drug sensitivity score [6] | drug sensitivity score [7]
Cc1sc2c(c1C)C(c1ccc(Cl)cc1)=N[C@@H](CC(=O)Nc1ccc(O)cc1)c1nnc(C)n1-2 [OTX015] (max concentration tested 10000 nM) | 0 | 75.4 | 69.2 | 59.5 | 14.6 | 14.5 | 10.7
C[C@@H](Oc1ccc2[nH]nc(/C=C/c3cnn(CCO)c3)c2c1)c1c(Cl)cncc1Cl (max concentration tested 1000 nM) | 2.66 | 67.9 | 55.4 | 91 | 6.87 | 6.1 | 7.62
CC(C)(O)CC(=O)NCCn1ccc2ncnc(Nc3ccc(Oc4cccc(C(F)(F)F)c4)c(Cl)c3)c21 [TAK-285] (max concentration tested 2500 nM) | 0 | -0.95 | 6.24 | -2.72 | 0 | 0 | 0.89
CCNc1nc(Nc2cc(F)c(C(=O)N3CCOCC3)cc2OC)ncc1C(F)(F)F [GNE-7915] (max concentration tested 1000 nM) | 0 | 12.4 | 0.1 | 8.52 | 0.19 | 0 | 0
Cc1nc(Nc2n[nH]c3c2CN(C(=O)N[C@H](CN(C)C)c2ccccc2)C3(C)C)c2sccc2n1 (max concentration tested 10000 nM) | 10.6 | 101 | 101 | 86.4 | 15.4 | 24.2 | 27.9
NC1(C(=O)N[C@@H](CCO)c2ccc(Cl)cc2)CCN(c2ncnc3[nH]ccc23)CC1 [AZD-5363] (max concentration tested 10000 nM) | 0 | 66.5 | 56.9 | 20.3 | 3.33 | 4.35 | 0.45
CN(C)C(=O)c1ccc(S(=O)(=O)c2ccc(NC(=O)[C@@](C)(O)C(F)(F)F)c(Cl)c2)cc1 [AZD7545] (max concentration tested 10000 nM) | 0 | 17.4 | 2.29 | 57 | 0.76 | 0 | 2.45
COc1cc(NS(C)(=O)=O)ccc1Nc1c2ccccc2nc2ccccc12 [Amsacrine] (max concentration tested 10000 nM) | 1.27 | 81.6 | 86.6 | 55 | 11.1 | 15.6 | 5.76
Cc1cc(-c2nc(-c3ccc(OC(F)(F)F)cc3)no2)nn1Cc1ccnc(N2CCN(C3CC3)CC2)c1 [BAY 87-2243] (max concentration tested 1000 nM) | 0 | 65.9 | 15.5 | 74.5 | 26.4 | 2.18 | 31.7
CNC(=O)c1ccccc1Nc1nc(Nc2ccc3c(c2OC)CCC[C@H](N2CCN(CCO)CC2)C3)ncc1Cl (max concentration tested 5000 nM) | 2.99 | 98.5 | 82.8 | 86.5 | 7.99 | 8.71 | 15
NC(=S)N/N=C/c1ncccc1N [Triapine] (max concentration tested 10000 nM) | 0.94 | 63.9 | 63.8 | 65.6 | 5.68 | 2.82 | 4.81
COc1ncc(-c2ccc3nccc(-c4ccnnc4)c3c2)cc1NS(=O)(=O)c1ccc(F)cc1F [Omipalisib] (max concentration tested 1000 nM) | 0 | 83.8 | 94 | 64.3 | 9.45 | 23.6 | 10.6
CC[C@@]1(O)C(=O)OCc2c1cc1n(c2=O)Cc2cc3ccccc3nc2-1 [Camptothecin] (max concentration tested 5000 nM) | 10.2 | 99.9 | 99.6 | 93.1 | 22.2 | 23.6 | 14.9
Cn1cc(-c2cnn3c(N)c(Br)c([C@@H]4CCCNC4)nc23)cn1 [MK-8776] (max concentration tested 2500 nM) | 0 | 72 | 29.6 | 7.73 | 7.06 | 2.03 | 0
CNC(=O)c1nn(C)c2c1C(C)(C)Cc1cnc(Nc3ccc(N4CCN(C)CC4)cc3)nc1-2 [Milciclib] (max concentration tested 10000 nM) | 0.17 | 96 | 101 | 79.3 | 9.72 | 16.6 | 9.77
Cn1nccc1Nc1nccc(-c2ccn([C@H](CO)c3ccc(Cl)c(F)c3)c(=O)c2)n1 [GDC-0994] (max concentration tested 10000 nM) | 0 | 92.6 | 40 | 8.18 | 5.84 | 1.37 | 0
